From patent US5696245A, “Fructofuranosyl substituted polymers and methods for their production” (The University of Montana, priority 1995, dated 1997)
In brackets after ≈: the same amount, converted by molar mass.

How the values were obtained:
[1] = Solubility of Estriol in water in presence of CD's and Fru-CD's; assay type: physicochemical
Description: (§1) The solubilities of 2 and 4 were determined as were their respective abilities to solubilize a slightly soluble drug.
Solubility of Estriol in Water in
Presence of CD's and Fru-CD's at 20° C.
Solubility in 1.5 × 10^-2 M CD

invertase [2] = assay: Hydrolysis by invertase; assay type: biochemical; conditions: conditions of complete sucrose hydrolysis in 30 minutes
Description: (§2) No inhibition was manifested by the parent CD's. […] Furthermore, provided that the Fru-α-CD is capable of transport to regions of plants or of plant cells, where invertase action occurs, then it is a potent plant growth regulator.

[3] = Solubility in water of CD's and Fru-CD's; assay type: physicochemical; conditions: 21° C. ± 1° C.
Description: as §1
^a determined at 21° C. ± 1° C.

invertase [4] = assay: Inhibition of invertase (hydrolysis of sucrose); assay type: biochemical; conditions: for inhibition of invertase: 1:1 mole ratio with sucrose
Description: Reference is now made to the drawings accompanying the application wherein the sole Figure is a graph showing the action of invertase on sucrose in the presence of cyclodextrins and fructosyl cyclodextrins.
as §2

Structure (SMILES)	hydrolysis by invertase (invertase [2])	Solubility in water [3] [mg/mL]	inhibition of invertase (invertase [4])	also measured
C[C@]12CC[C@@H]3c4ccc(O)cc4CC[C@H]3[C@@H]1C[C@@H](O)[C@@H]2O [Estriol, reference compound]	–	–	–	solubility ([1]; water without CD, 20° C.): 0.023 mg/mL
OC[C@H]1O[C@@](CO)(OC[C@H]2O[C@@H]3O[C@H]4[C@H](O)[C@@H](O)[C@@H](O[C@H]5[C@H](O)[C@@H](O)[C@@H](O[C@H]6[C@H](O)[C@@H](O)[C@@H](O[C@H]7[C@H](O)[C@@H](O)[C@@H](O[C@H]8[C@H](O)[C@@H](O)[C@@H](O[C@H]9[C@H](O)[C@@H](O)[C@@H](O[C@H]2[C@H](O)[C@H]3O)O[C@@H]9CO)O[C@@H]8CO)O[C@@H]7CO)O[C@@H]6CO)O[C@@H]5CO)O[C@@H]4CO)[C@@H](O)[C@@H]1O [compound 2, 6-O-(β-D-fructofuranosyl) cycloheptaamylose]	unaffected by invertase	1136 (≈ 876 mM)	demonstrated inhibition of invertase	ability to solubilize sparingly soluble compounds by inclusion, vs parent cyclodextrins ([1]; general description): increased ability to solubilize
OC[C@H]1O[C@@](CO)(OC[C@H]2O[C@@H]3O[C@H]4[C@H](O)[C@@H](O)[C@@H](O[C@H]5[C@H](O)[C@@H](O)[C@@H](O[C@H]6[C@H](O)[C@@H](O)[C@@H](O[C@H]7[C@H](O)[C@@H](O)[C@@H](O[C@H]8[C@H](O)[C@@H](O)[C@@H](O[C@H]2[C@H](O)[C@H]3O)O[C@@H]8CO)O[C@@H]7CO)O[C@@H]6CO)O[C@@H]5CO)O[C@@H]4CO)[C@@H](O)[C@@H]1O [compound 4, 6-O-(β-D-fructofuranosyl) cyclohexaamylose]	unaffected by invertase	1054 (≈ 929 mM)	to a much greater extent, 4 demonstrated inhibition of invertase	type of invertase inhibition (invertase [4]; hydrolysis of sucrose by invertase, detailed kinetic study still required): appears to be a non-reversible inhibitor
OC[C@H]1O[C@@](CO)(O[C@H]2O[C@H](CO)[C@@H](O)[C@H](O)[C@H]2O)[C@@H](O)[C@@H]1O [sucrose, reference compound]	complete hydrolysis	–	–	–
OC[C@H]1O[C@@H]2O[C@H]3[C@H](O)[C@@H](O)[C@@H](O[C@H]4[C@H](O)[C@@H](O)[C@@H](O[C@H]5[C@H](O)[C@@H](O)[C@@H](O[C@H]6[C@H](O)[C@@H](O)[C@@H](O[C@H]7[C@H](O)[C@@H](O)[C@@H](O[C@H]1[C@H](O)[C@H]2O)O[C@@H]7CO)O[C@@H]6CO)O[C@@H]5CO)O[C@@H]4CO)O[C@@H]3CO [α-CD, cyclohexaamylose, reference compound]	–	126 (≈ 130 mM)	–	–
OC[C@H]1O[C@@H]2O[C@H]3[C@H](O)[C@@H](O)[C@@H](O[C@H]4[C@H](O)[C@@H](O)[C@@H](O[C@H]5[C@H](O)[C@@H](O)[C@@H](O[C@H]6[C@H](O)[C@@H](O)[C@@H](O[C@H]7[C@H](O)[C@@H](O)[C@@H](O[C@H]8[C@H](O)[C@@H](O)[C@@H](O[C@H]1[C@H](O)[C@H]2O)O[C@@H]8CO)O[C@@H]7CO)O[C@@H]6CO)O[C@@H]5CO)O[C@@H]4CO)O[C@@H]3CO [β-CD, cycloheptaamylose, reference compound]	–	20 (≈ 17.6 mM)	–	–
